What was measured:
Format in all cases: cell-based
[1] = system: Pseudomonas aeruginosa ATCC9027 biofilm; assay: Combinational effects between ionic silver and polyphosphate (FIC) on NUNC biofilms; design: MIC in combination (A) / MIC in combination (B): unit not given beside the values; details: for MIC alone mg/ml (B): agent B alone; for MIC in combination (B): agent B in combination with A; for MIC alone mg/ml (A): agent A alone; for MIC in combination (A): agent A in combination with B
Method: (§1) The bacteria used in this study were Staphylococcus aureus ATCC6538, Candida albicans ATCC10231 and Pseudomonas aeruginosa ATCC9027. Pure cultures were maintained on nutrient agar at 37° C. The NUNC-TSP transferable solid phase screening system (NUNC, Roskilde, Denmark) was used to generate up to 96 reproducible biofilms in a microtitre plate. Briefly, a suspension of each bacteria was prepared in 0.9% saline solution and adjusted to a McFarland's standard no. 1.0. This bacterial suspension was then diluted 1:30 in sterile TSB and 150 μl aliquots aseptically transferred to a 96 well Calgary device. […] Biofilms were generated as described previously. […] Sigma-Aldrich, Germany) was prepared in water (40 mg/ml) and filter sterilised (0.22 μm). Concentrations of polyphosphate were prepared horizontally across the NUNC 96 well plate, whilst ionic silver was prepared vertically. […] This permitted a diverse array of drug concentration combinations to be tested in a single investigation.

[2] = system: Staphylococcus aureus ATCC6538 biofilm; assay: as above; design: MIC in combination (A) / MIC in combination (B): unit not given beside the values; details: 24 hour S. aureus biofilm
Method: as §1

[3] = system: Candida albicans ATCC10231 biofilm; assay: as above; design: MIC in combination (A) / MIC in combination (B): unit not given beside the values; details: 72 hour C. albicans biofilm
Method: as §1

[4] = system: Pseudomonas aeruginosa ATCC9027 biofilm; assay: Challenge of NUNC-TSP biofilms to polyphosphate (MIC, MBC, MBEC)
Method: (§2) The bacteria used in this study were Staphylococcus aureus ATCC6538, Candida albicans ATCC10231 and Pseudomonas aeruginosa ATCC9027. Pure cultures were maintained on nutrient agar at 37° C. The NUNC-TSP transferable solid phase screening system (NUNC, Roskilde, Denmark) was used to generate up to 96 reproducible biofilms in a microtitre plate. Briefly, a suspension of each bacteria was prepared in 0.9% saline solution and adjusted to a McFarland's standard no. 1.0. This bacterial suspension was then diluted 1:30 in sterile TSB and 150 μl aliquots aseptically transferred to a 96 well Calgary device. Plates were incubated for 24 and 72 hours and then submerged in 150 μl 0.9% saline solution to remove planktonic bacteria from the biofilm surface. A stock solution of polyphosphate (80 mg/ml) was prepared in distilled water and filter sterilised (0.22 μm). This was subsequently diluted 1:2 in triplicate across the wells in TSB to a final concentration of 0.04 mg/ml. Each well also consisted of positive controls (TSB only in absence of antimicrobial agent) and negative controls. NUNC solid phase lids were subsequently transferred to this challenge plate and incubated overnight (37° C.). Wells were visually inspected for turbidity signifying bacterial growth. The minimum inhibitory concentration was defined as the lowest concentration of polyphosphate to prevent bacterial growth. Aliquots of wells (10 μl) showing no visual signs of turbidity were transferred to fresh TSB stocks and incubated for a further 8 hours (37° C.). This allowed the determination of the minimum bactericidal concentration (MBC). Subsequent to this, challenged NUNC peg lids were transferred to a 96 well recovery plate containing TSB media only. Plates were incubated overnight and visualised for bacterial growth. This allowed the determination of the minimum biofilm eradication concentration (MBEC). Any growth in the media corresponded to planktonic bacteria seeding the media from a viable biofilm. Absence of turbidity therefore signified bacterial eradication at this respective concentration of polyphosphate.

[5] = system: Staphylococcus aureus ATCC6538 biofilm; assay: as above
Method: as §2

[6] = 24 hour monospecies P. aeruginosa biofilm
[7] = 24 hour monospecies S. aureus biofilm

**Q.** Which results are given for `O=[N+]([O-])[O-].[Ag+]` [silver nitrate, reference compound]?
**A.** FIC (B) ([1]; 24 hour P. aeruginosa biofilm): 0.0625; MIC alone mg/ml (B) ([1]; 24 hour P. aeruginosa biofilm): 10 mg/mL; MIC in combination (B) ([1]; 24 hour P. aeruginosa biofilm): 0.625; FIC (B) ([1]; 72 hour P. aeruginosa biofilm): 0.1; MIC alone mg/ml (B) ([1]; 72 hour P. aeruginosa biofilm): 0.6 mg/mL; MIC in combination (B) ([1]; 72 hour P. aeruginosa biofilm): 0.07; FIC (B) [2]: 1; MIC alone mg/ml (B) ([2]; agent B alone): 0.015 mg/mL; MIC in combination (B) ([2]; agent B in combination with A): 0.015; FIC (B) [3]: 0.428; MIC alone mg/ml (B) ([3]; agent B alone): 0.07 mg/mL; MIC in combination (B) ([3]; agent B in combination with A): 0.03

**Q.** How did the “FIC (A)” value ([1]; 24 hour P. aeruginosa biofilm) turn out when polyphosphate was run?
**A.** 0.125

**Q.** And the “MIC alone mg/ml (A)” value ([1]; 24 hour P. aeruginosa biofilm)?
**A.** 5 mg/mL

**Q.** And the “MIC in combination (A)” value ([1]; 24 hour P. aeruginosa biofilm)?
**A.** 0.625

**Q.** What about the “FIC (A)” value ([1]; 72 hour P. aeruginosa biofilm) of the same molecule?
**A.** 0.5

**Q.** And the “MIC alone mg/ml (A)” value ([1]; 72 hour P. aeruginosa biofilm)?
**A.** 80 mg/mL

**Q.** And the “MIC in combination (A)” value ([1]; 72 hour P. aeruginosa biofilm)?
**A.** 40

**Q.** And the “FIC (A)” value [2]?
**A.** 0.012

**Q.** And the “MIC alone mg/ml (A)” value ([2]; agent A alone)?
**A.** 1.25 mg/mL

**Q.** What about the “MIC in combination (A)” value ([2]; agent A in combination with B) of the same molecule?
**A.** 0.015

**Q.** And the “FIC (A)” value [3]?
**A.** 0.006

**Q.** What about the “MIC alone mg/ml (A)” value ([3]; agent A alone) of the same molecule?
**A.** 5 mg/mL

**Q.** What about the “MIC in combination (A)” value ([3]; agent A in combination with B) of the same molecule?
**A.** 0.03

**Q.** What about the MBC [4, 6] of the same molecule?
**A.** >80000 µg/mL

**Q.** What about the MBEC [4, 6] of the same molecule?
**A.** >80 mg/mL

**Q.** And the MIC [4, 6]?
**A.** 5000 µg/mL

**Q.** What about the MIC ([4]; 72 hour P. aeruginosa biofilm) of the same molecule?
**A.** 80000 µg/mL

**Q.** What about the MBC [5, 7] of the same molecule?
**A.** 10000 µg/mL

**Q.** What about the MBEC [5, 7] of the same molecule?
**A.** 40 to 80 mg/mL

**Q.** And the MIC [5, 7]?
**A.** 1250 µg/mL

**Q.** What about the MIC ([5]; 72 hour S. aureus biofilm) of the same molecule?
**A.** 20000 µg/mL
